This assay has as its target T1, human TLR9 (Homo sapiens, UniProt Q9NR96).
T1 sequence (Q9NR96 26-1032): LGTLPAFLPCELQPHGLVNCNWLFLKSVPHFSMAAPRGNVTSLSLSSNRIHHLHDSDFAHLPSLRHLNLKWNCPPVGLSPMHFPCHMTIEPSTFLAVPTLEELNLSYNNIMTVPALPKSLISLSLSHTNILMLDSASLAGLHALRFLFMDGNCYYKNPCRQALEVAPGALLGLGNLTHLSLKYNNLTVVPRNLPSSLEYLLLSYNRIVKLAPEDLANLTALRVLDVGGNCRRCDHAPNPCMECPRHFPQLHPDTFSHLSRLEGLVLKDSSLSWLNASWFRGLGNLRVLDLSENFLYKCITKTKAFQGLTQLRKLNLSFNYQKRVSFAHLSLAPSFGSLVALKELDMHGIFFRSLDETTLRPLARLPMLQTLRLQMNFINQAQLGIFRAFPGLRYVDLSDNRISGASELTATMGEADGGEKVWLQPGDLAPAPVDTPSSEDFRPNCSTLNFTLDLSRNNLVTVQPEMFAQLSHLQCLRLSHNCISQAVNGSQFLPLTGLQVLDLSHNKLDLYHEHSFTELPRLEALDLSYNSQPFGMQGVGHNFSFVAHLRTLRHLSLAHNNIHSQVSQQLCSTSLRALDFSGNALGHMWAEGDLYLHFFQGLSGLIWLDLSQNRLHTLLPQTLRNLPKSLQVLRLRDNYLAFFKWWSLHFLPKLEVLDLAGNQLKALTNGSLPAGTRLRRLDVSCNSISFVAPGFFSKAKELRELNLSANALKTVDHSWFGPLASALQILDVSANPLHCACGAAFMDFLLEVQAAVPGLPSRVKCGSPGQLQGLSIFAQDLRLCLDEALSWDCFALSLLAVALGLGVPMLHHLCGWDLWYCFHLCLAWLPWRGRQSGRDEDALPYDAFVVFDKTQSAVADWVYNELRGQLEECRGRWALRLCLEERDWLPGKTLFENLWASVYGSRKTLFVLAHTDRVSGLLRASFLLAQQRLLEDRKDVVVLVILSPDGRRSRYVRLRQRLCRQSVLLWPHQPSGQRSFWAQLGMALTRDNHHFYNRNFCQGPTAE
The experiment in a line: HEK293-Blue-hTLR-9 cells assay (SEAP reporter, ODN2006 stimulation). The note with it: HEK293-Blue-hTLR9 cells, ODN2006 ligand, 20 hrs incubation. In kind it is cell-based. The text has this: A stable HEK293-Blue-hTLR-9 cell line was purchased from InvivoGen (Cat. #: hkb-htlr9, San Diego, Calif., USA). These cells were originally designed for studying the stimulation of human TLR9 by monitoring the activation of NF-κB. A SEAP (secreted embryonic alkaline phosphatase) reporter gene was placed under the control of the IFN-β minimal promoter fused to five NF-κB and AP-1-binding sites. The SEAP was induced by activating NF-κB and AP-1 via stimulating HEK-Blue hTLR9 cells with TLR9 ligands. Therefore the reporter expression was declined by TLR9 antagonist under the stimulation of a ligand, such as ODN2006 (Cat. #: tlr1-2006-1, Invivogen, San Diego, Calif., USA), for incubation of 20 hrs. The cell culture supernatant SEAP reporter activity was determined using QUANTI-Blue™ kit (Cat. #: rep-qb1, Invivogen, San Diego, Calif., USA) at a wavelength of 640 nm, a detection medium that turns purple or blue in the presence of alkaline phosphatase.
HEK293-Blue-hTLR9 cells were incubated at a density of 250,000˜450,000 cells/mL in a volume of 170 μL in a 96-well plate in Dulbecco's Modified Eagle's medium (DMEM) containing 4.5 g/L glucose, 50 U/mL penicillin, […], […], 2 mM L-glutamine, 10% (v/v) heat-inactivated fetal bovine serum with addition of 20 μL test compound in a serial dilution in the presence of final DMSO at 1% and 10 μL of 20 uM ODN2006 in above DMEM, perform incubation under 37° C. in a CO2 incubator for 20 hrs. Then 20 μL of the supernatant from each well was incubated with 180 μL Quanti-blue substrate solution at 37° C. for 2 hrs and the absorbance was read at 620-655 nm using a spectrophotorneter. The signalling pathway that TLR9 activation leads to downstream NF-κB activation has been widely accepted, and therefore similar reporter assay was modified for evaluating TLR9 antagonist.

Take `C[C@@H]1CN(c2ccc(C#N)n3nccc23)C[C@H](CN2CCC(CCN)CC2)O1` [Example 13, 4-[(2S,6R)-2-[[4-(2-aminoethyl)-1-piperidyl]methyl]-6-methyl-morpholin-4-yl]pyrazolo[1,5-a]pyridine-7-carbonitrile]: the half-inhibitory concentration (IC50) turned out to be 270 nM.
In turn, `C[C@@H]1CN(c2ccc(C#N)n3nccc23)C[C@H](CN2CCNC3(CC3)C2)O1` [Example 40, 4-[(2S,6R)-2-(4,7-diazaspiro[2.5]octan-7-ylmethyl)-6-methyl-morpholin-4-yl]pyrazolo[1,5-a]pyridine-7-carbonitrile] displayed a half-inhibitory concentration (IC50) of 13000 nM.
In turn, `C[C@@H]1CN(c2ccc(C#N)n3nccc23)C[C@H](CN2CCC3(CCNC3)C2=O)O1` (stereo partly drawn) [Example 21, 4-[(2R,6R)-2-methyl-6-[(1-oxo-2,7-diazaspiro[4.4]nonan-2-yl)methyl]morpholin-4-yl]pyrazolo[1,5-a]pyridine-7-carbonitrile] yielded an IC50 of 16000 nM.
As to `C[C@@H]1CN(c2ccc(C#N)n3nccc23)C[C@H](CNC2CCN(C)CC2)O1` [Example 7, 4-[(2R,6S)-2-methyl-6-[[(1-methyl-4-piperidyl)amino]methyl]morpholin-4-yl]pyrazolo[1,5-a]pyridine-7-carbonitrile], the half-maximal inhibitory concentration (IC50) stood at 320 nM.
`C[C@@H]1CN(c2ccc(C#N)n3ncc(F)c23)C[C@H](CN2CCCC3(CCNCC3)C2)O1` [Example 67, 4-[(2S,6R)-2-(2,9-diazaspiro[5.5]undecan-2-ylmethyl)-6-methyl-morpholin-4-yl]-3-fluoro-pyrazolo[1,5-a]pyridine-7-carbonitrile]: the IC50 stood at 87 nM. This IC50 lies about 3.7-fold lower than the previous one.
For the compound `C[C@@H]1CN(c2ccc(C#N)n3ncc(F)c23)C[C@H](CN2CCC3(CCCNC3)C2)O1` (stereo partly drawn) [Example 69, 3-fluoro-4-[(2S,6R)-2-(2,9-diazaspiro[4.5]decan-2-ylmethyl)-6-methyl-morpholin-4-yl]pyrazolo[1,5-a]pyridine-7-carbonitrile], the IC50 was determined as 130 nM.
For `C[C@@H]1CN(c2ccc(C#N)n3nccc23)C[C@H](CN2CCC3(CCNC3)CC2)O1` [Example 19, 4-[(2S,6R)-2-(2,8-diazaspiro[4.5]decan-8-ylmethyl)-6-methyl-morpholin-4-yl]pyrazolo[1,5-a]pyridine-7-carbonitrile] the value was 92 nM; for `C[C@@H]1CN(c2ccc(C#N)n3nccc23)C[C@H](CN2CC3CNCC3C2)O1` (stereo partly drawn) [Example 22, 4-[(2S,6R)-2-(2,3,3a,4,6,6a-hexahydro-1H-pyrrolo[3,4-c]pyrrol-5-ylmethyl)-6-methyl-morpholin-4-yl]pyrazolo[1,5-a]pyridine-7-carbonitrile], 180 nM; for `C[C@@H]1CN(c2ccc(C#N)n3ncc(F)c23)C[C@H](CN2CCCC3(CCNC3)C2)O1` (stereo partly drawn) [Example 68, 3-fluoro-4-[(2S,6R)-2-(2,7-diazaspiro[4.5]decan-7-ylmethyl)-6-methyl-morpholin-4-yl]pyrazolo[1,5-a]pyridine-7-carbonitrile], 110 nM.
For `C[C@@H]1CN(c2ccc(C#N)n3nccc23)C[C@H](CN2CCN(C(=O)CN)CC2)O1` [Example 14, 4-[(2S,6R)-2-[[4-(2-aminoacetyl)piperazin-1-yl]methyl]-6-methyl-morpholin-4-yl]pyrazolo[1,5-a]pyridine-7-carbonitrile] the value was 3000 nM; for `C[C@@H]1CN(c2ccc(C#N)n3nccc23)C[C@H](CN2CCC3(CC2)CNCCO3)O1` [Example 60, 4-[(2R,6S)-2-methyl-6-(1-oxa-4,9-diazaspiro[5.5]undecan-9-ylmethyl)morpholin-4-yl]pyrazolo[1,5-a]pyridine-7-carbonitrile], 180 nM.
As for `C[C@@H]1CN(c2ccc(C#N)n3nccc23)C[C@H](CN2CCCC3CNCC32)O1` (stereo partly drawn) [Example 61, 4-[(2S,6R)-2-(2,3,4,4a,5,6,7,7a-octahydropyrrolo[3,4-b]pyridin-1-ylmethyl)-6-methyl-morpholin-4-yl]pyrazolo[1,5-a]pyridine-7-carbonitrile], the IC50 is 6100 nM. This IC50 is about 34-fold higher than that of the compound before.
Regarding `C[C@@H]1CN(c2ccc(C#N)n3nccc23)C[C@H](CN2CC[C@H](N)[C@H](C)C2)O1` [Example 74, 4-[(2S,6R)-2-[[(3R,4S)-4-amino-3-methyl-1-piperidyl]methyl]-6-methyl-morpholin-4-yl]pyrazolo[1,5-a]pyridine-7-carbonitrile], half-maximal inhibition (IC50) required 220 nM.
For the compound `C[C@@H]1CN(c2ccc(C#N)n3nccc23)C[C@H](CN2CCC3(CCCNC3)CC2)O1` [Example 27, 4-[(2S,6R)-2-(2,9-diazaspiro[5.5]undecan-9-ylmethyl)-6-methyl-morpholin-4-yl]pyrazolo[1,5-a]pyridine-7-carbonitrile], the half-inhibitory concentration (IC50) amounted to 65 nM.
For `C[C@@H]1CN(c2ccc(C#N)n3nccc23)C[C@H](CN2CCC(N3CCCCC3)CC2)O1` [Example 16, 4-[(2R,6S)-2-methyl-6-[[4-(1-piperidyl)-1-piperidyl]methyl]morpholin-4-yl]pyrazolo[1,5-a]pyridine-7-carbonitrile] the value was 520 nM; for `C[C@@H]1CN(c2ccc(C#N)n3nccc23)C[C@H](CN2CCNCC2)O1` [Example 5, 4-[(2R,6S)-2-methyl-6-(piperazin-1-ylmethyl)morpholin-4-yl]pyrazolo[1,5-a]pyridine-7-carbonitrile], 890 nM; for `C[C@@H]1CN(c2ccc(C#N)n3nccc23)C[C@H](CN2CCC3NCCC3C2)O1` (stereo partly drawn) [Example 41, 4-[(2S,6R)-2-(1,2,3,3a,4,6,7,7a-octahydropyrrolo[3,2-c]pyridin-5-ylmethyl)-6-methyl-morpholin-4-yl]pyrazolo[1,5-a]pyridine-7-carbonitrile], 140 nM.
`C[C@@H]1CN(c2ccc(C#N)n3nccc23)C[C@H](CN2C3CCCC2CC(N)C3)O1` (stereo partly drawn) [Example 66, Exo-4-[(2S,6R)-2-[(3-amino-9-azabicyclo[3.3.1]nonan-9-yl)methyl]-6-methyl-morpholin-4-yl]pyrazolo[1,5-a]pyridine-7-carbonitrile] showed an IC50 of 120 nM.
For the compound `C[C@@H]1CN(c2ccc(C#N)n3nccc23)C[C@H](CN2CC3(CCNC3)CC2=O)O1` (stereo partly drawn) [Example 20, 4-[(2R,6R)-2-methyl-6-[(3-oxo-2,7-diazaspiro[4.4]nonan-2-yl)methyl]morpholin-4-yl]pyrazolo[1,5-a]pyridine-7-carbonitrile], the IC50 came to 12000 nM.
Compound `C[C@@H]1CN(c2ccc(C#N)n3nccc23)C[C@H](CN2CCCC3(CCNCC3)C2)O1` [Example 32, 4-[(2S,6R)-2-(2,9-diazaspiro[5.5]undecan-2-ylmethyl)-6-methyl-morpholin-4-yl]pyrazolo[1,5-a]pyridine-7-carbonitrile] showed an IC50 of 65 nM.
The compound `C[C@@H]1CN(c2ccc(C#N)n3nccc23)C[C@H](CN2C3CNCC2COC3)O1` [Example 57, 4-[(2R,6S)-2-methyl-6-(3-oxa-7,9-diazabicyclo[3.3.1]nonan-9-ylmethyl)morpholin-4-yl]pyrazolo[1,5-a]pyridine-7-carbonitrile] yielded an IC50 of 10000 nM.
With `C[C@@H]1CN(c2ccc(C#N)n3nccc23)C[C@H](CN2CC3CCC(C2)N3)O1` [Example 31, 4-[(2S,6R)-2-(3,8-diazabicyclo[3.2.1]octan-3-ylmethyl)-6-methyl-morpholin-4-yl]pyrazolo[1,5-a]pyridine-7-carbonitrile], the IC50 turned out to be 10000 nM.

In general, IC50 refers to the point on the concentration scale where inhibition reaches its midpoint. The low end stands for greater potency, the high end for weaker potency.

(Values after US20220112187A1, “PYRAZOLOPYRIDINE AMINE COMPOUNDS FOR THE TREATMENT OF AUTOIMMUNE DISEASE” (Hoffmann-La Roche Inc., priority 2018, published 2022).)
